Measured values published in ChEMBL document CHEMBL1156506, “Changes to the HIV long terminal repeat and to HIV integrase differentially impact HIV integrase assembly, activity, and the binding of strand transfer inhibitors” (J Biol Chem, 2007).

Assays:
[1] = test system: Human immunodeficiency virus type 1 integrase (Human immunodeficiency virus 1), Q7ZJM1 [N155H]; assay: Inhibition of HIV recombinant integrase N155H mutant assessed as specific strand transfer activity using U5 ApTCA LTR by scintillation proximity assay relative to wild type LTR; design: scale not given: the % may be the effect or the level left; conditions: tested as the 3H-labelled form
[2] = test system: Human immunodeficiency virus; assay: Inhibition of HIV wild type integrase assessed as strand transfer activity using U5 GGCA LTR by scintillation proximity assay relative to wild type LTR; design: scale not given: the % may be the effect or the level left; conditions: tested as the 3H-labelled form

Cn1c(N2CCCCS2(=O)=O)nc(C(=O)NCc2ccc(F)cc2)c(O)c1=O [BMS-707035]
Activity [1]: > 40%
Activity [2]: < 25%
